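Each compound was tested at five concentrations against cells in 96-well plates for 48 hours. TGI marks complete inhibition of growth.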
Tests used:
Test in all cases: DTP human tumour cell line panel, 48 h
786-0 renal = system: 786-0 renal
A498 renal = system: A498 renal
A549 NSCLC = system: A549 NSCLC
ACHN renal = system: ACHN renal
BT-549 breast = system: BT-549 breast
CAKI-1 renal = system: CAKI-1 renal
COLO 205 colon = system: COLO 205 colon
DU-145 prostate = system: DU-145 prostate
EKVX NSCLC = system: EKVX NSCLC
HCC-2998 colon = system: HCC-2998 colon
HCT-116 colon = system: HCT-116 colon
HCT-15 colon = system: HCT-15 colon
HOP-62 NSCLC = system: HOP-62 NSCLC
HOP-92 NSCLC = system: HOP-92 NSCLC
HS 578T breast = system: HS 578T breast
HT29 colon = system: HT29 colon
IGROV1 ovarian = system: IGROV1 ovarian
KM12 colon = system: KM12 colon
LOX IMVI melanoma = system: LOX IMVI melanoma
M14 melanoma = system: M14 melanoma
MALME-3M melanoma = system: MALME-3M melanoma
MCF7 breast = system: MCF7 breast
MDA-MB-231 breast = system: MDA-MB-231 breast
MDA-MB-435 = system: MDA-MB-435
MDA-N = system: MDA-N
NCI-H226 lung = system: NCI-H226 lung
NCI-H23 lung = system: NCI-H23 lung
NCI-H460 lung = system: NCI-H460 lung
NCI-H522 lung = system: NCI-H522 lung
NCI/ADR-RES ovarian = system: NCI/ADR-RES ovarian
OVCAR-3 ovarian = system: OVCAR-3 ovarian
OVCAR-4 ovarian = system: OVCAR-4 ovarian
OVCAR-5 ovarian = system: OVCAR-5 ovarian
OVCAR-8 ovarian = system: OVCAR-8 ovarian
PC-3 prostate = system: PC-3 prostate
RPMI-8226 leukemia = system: RPMI-8226 leukemia
RXF 393 renal = system: RXF 393 renal
SF-268 CNS = system: SF-268 CNS
SF-295 CNS = system: SF-295 CNS
SF-539 CNS = system: SF-539 CNS
SK-MEL-2 melanoma = system: SK-MEL-2 melanoma
SK-MEL-28 melanoma = system: SK-MEL-28 melanoma
SK-MEL-5 melanoma = system: SK-MEL-5 melanoma
SK-OV-3 ovarian = system: SK-OV-3 ovarian
SN12C renal = system: SN12C renal
SNB-19 CNS = system: SNB-19 CNS
SNB-75 CNS = system: SNB-75 CNS
SW-620 colon = system: SW-620 colon
T-47D breast = system: T-47D breast
TK-10 renal = system: TK-10 renal
U251 CNS = system: U251 CNS
UACC-257 melanoma = system: UACC-257 melanoma
UACC-62 melanoma = system: UACC-62 melanoma
UO-31 renal = system: UO-31 renal
CCRF-CEM leukemia = system: CCRF-CEM leukemia
HL-60(TB) leukemia = system: HL-60(TB) leukemia
K-562 leukemia = system: K-562 leukemia
MOLT-4 leukemia = system: MOLT-4 leukemia

Work on `O=c1c2ccccc2c2ccccc2c(=O)n1-c1cc2c3ccccc3ccc2c2ccccc12` yielded a TGI (786-0 renal) of over 100 µM, a TGI (A498 renal) of over 100 µM and a TGI (A549 NSCLC) of over 100 µM. The TGI (ACHN renal) was over 100 µM, the TGI (BT-549 breast) was over 100 µM and the TGI (CAKI-1 renal) was over 100 µM. For the same compound, the TGI (COLO 205 colon) was over 100 µM, the TGI (DU-145 prostate) was over 100 µM and the TGI (EKVX NSCLC) was over 100 µM. The TGI (HCC-2998 colon) was 89.1 µM, the TGI (HCT-116 colon) was over 100 µM and the TGI (HCT-15 colon) was over 100 µM. It also gave a TGI (HOP-62 NSCLC) of over 100 µM, a TGI (HOP-92 NSCLC) of over 100 µM and a TGI (HS 578T breast) of over 100 µM. The TGI (HT29 colon) was over 100 µM, the TGI (IGROV1 ovarian) was over 100 µM and the TGI (KM12 colon) was over 100 µM. It also gave a TGI (LOX IMVI melanoma) of over 100 µM, a TGI (M14 melanoma) of over 100 µM and a TGI (MALME-3M melanoma) of over 100 µM. It also gave a TGI (MCF7 breast) of over 100 µM, a TGI (MDA-MB-231 breast) of over 100 µM and a TGI (MDA-MB-435) of over 100 µM. It also gave a TGI (MDA-N) of over 100 µM, a TGI (NCI-H226 lung) of over 100 µM and a TGI (NCI-H23 lung) of over 100 µM. The TGI (NCI-H460 lung) was over 100 µM, the TGI (NCI-H522 lung) was over 100 µM and the TGI (NCI/ADR-RES ovarian) was over 100 µM. It also gave a TGI (OVCAR-3 ovarian) of over 100 µM, a TGI (OVCAR-4 ovarian) of over 100 µM and a TGI (OVCAR-5 ovarian) of over 100 µM. For the same compound, the TGI (OVCAR-8 ovarian) was over 100 µM, the TGI (PC-3 prostate) was over 100 µM and the TGI (RPMI-8226 leukemia) was over 100000 nM. For the same compound, the TGI (RXF 393 renal) was over 100 µM, the TGI (SF-268 CNS) was over 100 µM and the TGI (SF-295 CNS) was over 100 µM. It also gave a TGI (SF-539 CNS) of over 100 µM, a TGI (SK-MEL-2 melanoma) of over 100 µM and a TGI (SK-MEL-28 melanoma) of over 100 µM. For the same compound, the TGI (SK-MEL-5 melanoma) was over 100 µM, the TGI (SK-OV-3 ovarian) was over 100 µM and the TGI (SN12C renal) was over 100 µM. It also gave a TGI (SNB-19 CNS) of over 100 µM, a TGI (SNB-75 CNS) of over 100 µM and a TGI (SW-620 colon) of over 100 µM. The TGI (T-47D breast) was over 100 µM, the TGI (TK-10 renal) was over 100 µM and the TGI (U251 CNS) was over 100 µM. It also gave a TGI (UACC-257 melanoma) of over 100 µM, a TGI (UACC-62 melanoma) of over 100 µM and a TGI (UO-31 renal) of over 100 µM.
In the case of `Clc1ccc(Cc2nc3ccccc3nc2-c2cccc(Cl)c2)cc1`, the TGI (786-0 renal) is reported as 3.63 µM, the TGI (A549 NSCLC) is reported as 32.8 µM and the TGI (ACHN renal) is reported as 3.45 µM. It also gave a TGI (BT-549 breast) of 16.7 µM, a TGI (CAKI-1 renal) of 8.51 µM and a TGI (CCRF-CEM leukemia) of 174 nM. For the same compound, the TGI (COLO 205 colon) was 7.88 µM, the TGI (DU-145 prostate) was 40.6 µM and the TGI (EKVX NSCLC) was 31.9 µM. For the same compound, the TGI (HCC-2998 colon) was 3.65 µM, the TGI (HCT-116 colon) was 3.29 µM and the TGI (HCT-15 colon) was 3.46 µM. For the same compound, the TGI (HL-60(TB) leukemia) was 6.29 µM, the TGI (HOP-62 NSCLC) was 38.1 µM and the TGI (HOP-92 NSCLC) was 5.14 µM. For the same compound, the TGI (HS 578T breast) was 12.4 µM, the TGI (HT29 colon) was 6 µM and the TGI (IGROV1 ovarian) was 3.66 µM. For the same compound, the TGI (K-562 leukemia) was 5.79 µM, the TGI (KM12 colon) was 16.5 µM and the TGI (LOX IMVI melanoma) was 3.58 µM. For the same compound, the TGI (M14 melanoma) was 5.06 µM, the TGI (MALME-3M melanoma) was 8.24 µM and the TGI (MCF7 breast) was 13 µM. For the same compound, the TGI (MDA-MB-231 breast) was 10.4 µM, the TGI (MDA-MB-435) was 4.09 µM and the TGI (MDA-N) was 5.64 µM. It also gave a TGI (MOLT-4 leukemia) of 6.82 µM, a TGI (NCI-H226 lung) of 38.4 µM and a TGI (NCI-H23 lung) of 27 µM. It also gave a TGI (NCI-H460 lung) of 37.8 µM, a TGI (NCI-H522 lung) of 3.41 µM and a TGI (NCI/ADR-RES ovarian) of 8.96 µM. The TGI (OVCAR-3 ovarian) was 17.4 µM, the TGI (OVCAR-4 ovarian) was 3.24 µM and the TGI (OVCAR-5 ovarian) was 21.2 µM. The TGI (OVCAR-8 ovarian) was 14.2 µM, the TGI (PC-3 prostate) was 8.18 µM and the TGI (RPMI-8226 leukemia) was 2140 nM. For the same compound, the TGI (RXF 393 renal) was 4.66 µM, the TGI (SF-268 CNS) was 44.4 µM and the TGI (SF-295 CNS) was 32.6 µM. The TGI (SF-539 CNS) was 4.92 µM, the TGI (SK-MEL-2 melanoma) was 8.11 µM and the TGI (SK-MEL-5 melanoma) was 18.1 µM. For the same compound, the TGI (SK-OV-3 ovarian) was 31.8 µM, the TGI (SN12C renal) was 8.63 µM and the TGI (SNB-19 CNS) was 3.85 µM. The TGI (SW-620 colon) was 3.71 µM, the TGI (T-47D breast) was over 100 µM and the TGI (TK-10 renal) was 25.9 µM. For the same compound, the TGI (U251 CNS) was 16.7 µM, the TGI (UACC-257 melanoma) was 39.3 µM and the TGI (UACC-62 melanoma) was 3.46 µM. The TGI (UO-31 renal) was 3.32 µM.

Reference: PubChem BioAssay (NCI)
